Test results as given in patent US11267824B2, “Inhibitors of indoleamine 2,3-dioxygenase and/or tryptophan 2,3-dioxygenase” (IDORSIA PHARMACEUTICALS LTD, priority 2017, dated 2022).

Legend:
[1] = biological target: Recombinant full-length human IDO1 (Homo sapiens (Human), UniProt P14902); experiment: IDO1 enzymatic assay (IDO inhibitory activity); assay type: biochemical; conditions: 2 nM enzyme, 5 μM L-tryptophan, pH6.5, 30 min pre-incubation, NFK quantified by LCMS; mean values if measured multiple times; read-out: hIDO activity (IC50 in nM)
Description: 1) Testing Compounds for IDO Inhibitory Activity in an IDO1 Enzymatic Assay:
Recombinant full-length human IDO1 with a N-terminal hexahistidine tag expressed in E. coli and purified to homogeneity is incubated at a final concentration of 2 nM in assay buffer consisting of 37.5 mM phosphate buffer at pH6.5 supplemented with 10 mM sodium L-ascorbate, 0.45 μM methylene blue, 50 U/ml catalase, 0.01% BSA, and 0.01% Tween 20 (protocol modified from Seegers et al, JBS 2014). Example compounds are serially diluted in DMSO, further diluted in phosphate buffer, and added to the enzyme at final concentrations ranging from 10 μM to 0.5 nM. The final DMSO concentration is 0.6%. Following a pre-incubation of 30 minutes at RT, the reaction is started by the addition of L-tryptophan at a final concentration of 5 μM in assay buffer. After 30 minutes of incubation at RT, 3 μL of the reaction mixture are transferred to a 384 deep well plate containing 25 μL of deionized water. 100 μl of 200 nM L-Tryptophan-(indole-d5) in cold 100% methanol are added followed by a 10 minutes centrifugation at 4,000 rpm at 4° C. An additional 75 μL of deionized water are then added and followed by a 10 minutes centrifugation at 4,000 rpm at 4° C. The product of the reaction N′-Formylkynurenine (NFK) is quantified by LCMS and normalized to the L-Tryptophan-(indole-d5) signal. Samples with 0.6% DMSO (0% effect) and a TDO/IDO inhibitor (100% effect) are used as control samples to set the parameters for the non-linear regression necessary for the determination of the half-maximal inhibitory concentration (IC50) for each compound. For each compound concentration the percentage of activity compared to 0% and 100% effect is calculated as average ±STDEV (each concentration measured in duplicate). IC50 values and curves are generated with XLfit software (IDBS) using Dose-Response One Site model 203 (four parameter logistic curve model). When compounds are measured multiple times, mean values are given.

[2] = biological target: Recombinant human TDO comprising amino acids 19-407 (Homo sapiens (Human), UniProt P48775); experiment: TDO2 enzymatic assay (TDO inhibitory activity); assay type: biochemical; conditions: 15 nM enzyme, 200 μM L-tryptophan, pH7, 30 min pre-incubation, NFK quantified by LCMS; mean values if measured multiple times; read-out: hTDO activity (IC50 in nM)
Description: 2) Testing Compounds for TDO Inhibitory Activity in a TDO2 Enzymatic Assay:
Recombinant human TDO comprising amino acids 19-407 with a N-terminal hexahistidine tag expressed in E. coli and purified to homogeneity is incubated at a final concentration of 15 nM in assay buffer consisting of 75 mM phosphate buffer at pH7 supplemented with 100 μM ascorbic acid, 50 U/ml Catalase, 0.01% BSA, and 0.01% Tween 20 (protocol modified from Seegers et al, JBS 2014). Example compounds are serially diluted in DMSO, further diluted in phosphate buffer, and added to the reaction mixture at final concentrations ranging from 10 μM to 0.5 nM. The final DMSO concentration is 0.6%. Following a pre-incubation of 30 minutes at RT, the reaction is started by the addition of L-tryptophan at a final concentration of 200 μM in assay buffer. After 30 minutes of incubation at RT, 3 μL of the reaction mixture are transferred to a 384 deep well plate containing 25 μL of deionized water. 100 μl of 200 nM L-Tryptophan-(indole-d5) in cold 100% methanol are added followed by a 10 minutes centrifugation at 4,000 rpm at 4° C. An additional 75 μL of deionized water are then added and followed by a 10 minutes centrifugation at 4,000 rpm at 4° C. The product of the reaction N′-Formylkynurenine (NFK) is quantified by LCMS and normalized to the L-Tryptophan-(indole-d5) signal. Samples with 0.6% DMSO (0% effect) and a TDO/IDO inhibitor (100% effect) are used as control samples to set the parameters for the non-linear regression necessary for the determination of the half-maximal inhibitory concentration (IC50) for each compound. For each compound concentration the percentage of activity compared to 0% and 100% effect is calculated as average±STDEV (each concentration measured in duplicate). IC50 values and curves are generated with XLfit software (IDBS) using Dose-Response One Site model 203 (four parameter logistic curve model). When compounds are measured multiple times, mean values are given.

Recombinant human TDO comprising amino acids 19-407, sequence (P48775 19-406 limits assumed): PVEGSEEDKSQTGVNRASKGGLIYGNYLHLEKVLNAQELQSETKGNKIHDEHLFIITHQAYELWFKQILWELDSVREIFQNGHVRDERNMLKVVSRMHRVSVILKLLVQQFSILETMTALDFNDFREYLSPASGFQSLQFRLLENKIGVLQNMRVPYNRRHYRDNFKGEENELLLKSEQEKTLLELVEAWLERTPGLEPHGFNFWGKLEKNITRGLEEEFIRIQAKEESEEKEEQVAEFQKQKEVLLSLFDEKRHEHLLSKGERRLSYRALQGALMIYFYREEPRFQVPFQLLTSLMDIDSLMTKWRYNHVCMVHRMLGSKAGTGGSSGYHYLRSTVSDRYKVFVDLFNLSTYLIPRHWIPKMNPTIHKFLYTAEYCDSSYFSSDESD
Recombinant full-length human IDO1, sequence (P14902 whole entry): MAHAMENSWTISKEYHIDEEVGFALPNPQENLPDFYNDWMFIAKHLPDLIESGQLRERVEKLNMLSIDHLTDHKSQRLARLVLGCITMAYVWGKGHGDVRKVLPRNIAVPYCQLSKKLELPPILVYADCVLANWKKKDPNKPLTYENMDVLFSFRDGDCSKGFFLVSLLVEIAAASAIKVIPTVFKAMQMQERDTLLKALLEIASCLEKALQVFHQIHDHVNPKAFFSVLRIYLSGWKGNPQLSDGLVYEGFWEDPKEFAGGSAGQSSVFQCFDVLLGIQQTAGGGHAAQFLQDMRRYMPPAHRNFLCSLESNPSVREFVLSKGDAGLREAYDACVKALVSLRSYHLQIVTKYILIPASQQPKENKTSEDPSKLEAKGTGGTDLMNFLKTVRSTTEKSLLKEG

Row | IC50 [1] [nM] | IC50 [2] [nM] | Compound
1 | 48.4 | 1460 | Cc1ccc(C(O)c2c(C3CC3)sc3cncn23)cc1 (racemic) [Example 51, rac-(2-Cyclopropyl-imidazo[5,1-b]thiazol-3-yl)-p-tolyl-methanol]
2 | 20.5 | 356 | O[C@@H](CC1CCCC1)c1c(C2CC2)sc2cncn12 [Example 24a, (S)-2-Cyclopentyl-1-(2-cyclopropyl-imidazo[5,1-b]thiazol-3-yl)-ethanol]
3 | 90.3 | 1580 | OC(c1cccs1)c1c(C2CC2)sc2cncn12 (racemic) [Example 171, rac-(2-Cyclopropyl-imidazo[5,1-b]thiazol-3-yl)-thiophen-2-yl-methanol]
4 | 209 | > 10200 | Cn1cc(-c2sc3cncn3c2C(O)C2CCCCC2)cn1 (racemic) [Example 125, rac-Cyclohexyl-[2-(1-methyl-1H-pyrazol-4-yl)-imidazo[5,1-b]thiazol-3-yl]-methanol]
5 | 205 | 3810 | CC1CCCC(CC(O)c2c(C(F)(F)F)sc3cncn23)C1 (centres unmarked) [Example 122, 2-(3-Methyl-cyclohexyl)-1-(2-trifluoromethyl-imidazo[5,1-b]thiazol-3-yl)-ethanol]
6 | 190 | 573 | Cc1sc2cncn2c1C(O)CC1CCCC1 (racemic) [Example 183, rac-2-Cyclopentyl-1-(2-methyl-imidazo[5,1-b]thiazol-3-yl)-ethanol]
7 | 18.7 | 151 | CC1(C)CCC(C)(C(O)c2c(C3CC3)sc3cncn23)C1 (centres unmarked) [Example 139, (2-Cyclopropyl-imidazo[5,1-b]thiazol-3-yl)-(1,3,3-trimethyl-cyclopentyl)-methanol]
8 | 85.8 | 2000 | CCC1CCC(CC(O)c2c(C3CC3)sc3cncn23)CC1 (racemic) [Example 142, rac-1-(2-Cyclopropyl-imidazo[5,1-b]thiazol-3-yl)-2-(4-ethyl-cyclohexyl)-ethanol]
9 | 18.8 | 287 | CC1(C)CCC(C(O)c2c(C3CC3)sc3cncn23)C1 (centres unmarked) [Example 47, (2-Cyclopropyl-imidazo[5,1-b]thiazol-3-yl)-(3,3-dimethyl-cyclopentyl)-methanol]
10 | 25.2 | 387 | CC1(C)CCC(C(O)c2c(C3CC3)sc3cncn23)CC1 (racemic) [Example 26, rac-(2-Cyclopropyl-imidazo[5,1-b]thiazol-3-yl)-(4,4-dimethyl-cyclohexyl)-methanol]
11 | 528 | 2130 | OC(CC1CCCC2CCCCC21)c1c(C2CC2)sc2cncn12 (centres unmarked) [Example 89, 1-(2-Cyclopropyl-imidazo[5,1-b]thiazol-3-yl)-2-(decahydro-naphthalen-1-yl)-ethanol]
12 | 4.63 | 11.6 | C=Cc1sc2cncn2c1[C@@H](O)C1CCCCC1 [Example 68a, (S)-Cyclohexyl-(2-vinyl-imidazo[5,1-b]thiazol-3-yl)-methanol]
13 | 15.8 | 383 | CC1CCC(C(O)c2c(C3CC3)sc3cncn23)CC1 (racemic) [Example 44, rac-(2-Cyclopropyl-imidazo[5,1-b]thiazol-3-yl)-(4-methyl-cyclohexyl)-methanol]
14 | 69 | 3180 | OC(CC1CCCCC1)c1c(C(F)(F)F)sc2cncn12 (racemic) [Example 64, rac-2-Cyclohexyl-1-(2-trifluoromethyl-imidazo[5,1-b]thiazol-3-yl)-ethanol]
15 | 1190 | 9950 | CCc1sc2cncn2c1[C@H](O)CC1CCCCC1 [Example 100b, (R)-2-Cyclohexyl-1-(2-ethyl-imidazo[5,1-b]thiazol-3-yl)-ethanol]
16 | 84.1 | 1960 | CC1CCC(C(O)c2c(C(F)(F)F)sc3cncn23)CC1 (racemic) [Example 115, rac-(4-Methyl-cyclohexyl)-(2-trifluoromethyl-imidazo[5,1-b]thiazol-3-yl)-methanol]
17 | 40 | 255 | CC1(C)CCCC(C(O)c2c(C3CC3)sc3cncn23)C1 (centres unmarked) [Example 69, (2-Cyclopropyl-imidazo[5,1-b]thiazol-3-yl)-(3,3-dimethyl-cyclohexyl)-methanol]
18 | 15 | 328 | CC1(C)CC[C@@H]([C@H](O)c2c(C3CC3)sc3cncn23)C1 [Example 47a, (S)-(2-Cyclopropyl-imidazo[5,1-b]thiazol-3-yl)-((R)-3,3-dimethyl-cyclopentyl)-methanol]
19 | 1160 | 2530 | Cc1ccccc1C(O)c1c(C2CC2)sc2cncn12 (racemic) [Example 148, rac-(2-Cyclopropyl-imidazo[5,1-b]thiazol-3-yl)-o-tolyl-methanol]
20 | 325 | 3510 | OC(Cc1cccc2ccccc12)c1c(C2CC2)sc2cncn12 (racemic) [Example 67, rac-1-(2-Cyclopropyl-imidazo[5,1-b]thiazol-3-yl)-2-naphthalen-1-yl-ethanol]
21 | 590 | > 10200 | Cn1cc(C(O)c2c(C3CC3)sc3cncn23)nn1 (racemic) [Example 192, rac-(2-Cyclopropyl-imidazo[5,1-b]thiazol-3-yl)-(1-methyl-1H-[1,2,3]triazol-4-yl)-methanol]
22 | 32.8 | 475 | OC(c1ccc(F)cc1)c1c(C2CC2)sc2cncn12 (racemic) [Example 144, rac-(2-Cyclopropyl-imidazo[5,1-b]thiazol-3-yl)-(4-fluoro-phenyl)-methanol]
23 | 25.1 | 907 | OC(c1c(C2CC2)sc2cncn12)C1CCC1 (racemic) [Example 43, rac-Cyclobutyl-(2-cyclopropyl-imidazo[5,1-b]thiazol-3-yl)-methanol]
24 | 1950 | > 10200 | OC(c1c[nH]nn1)c1c(C2CC2)sc2cncn12 (racemic) [Example 200, rac-(2-Cyclopropyl-imidazo[5,1-b]thiazol-3-yl)-(1H-[1,2,3]triazol-4-yl)-methanol]
25 | 75.2 | 775 | CC1(C)CCC(CC(O)c2c(C3CC3)sc3cncn23)CC1 (racemic) [Example 25, rac-1-(2-Cyclopropyl-imidazo[5,1-b]thiazol-3-yl)-2-(4,4-dimethyl-cyclohexyl)-ethanol]
26 | 384 | 277 | OC(CC1CCCCC1)c1c(C2CCCC2)sc2cncn12 (racemic) [Example 10, rac-2-Cyclohexyl-1-(2-cyclopentylimidazo[5,1-b]thiazol-3-yl)ethan-1-ol]
27 | 118 | 1290 | CCc1sc2cncn2c1C(O)CC1CCC(C)(C)CC1 (racemic) [Example 178, rac-2-(4,4-Dimethyl-cyclohexyl)-1-(2-ethyl-imidazo[5,1-b]thiazol-3-yl)-ethanol]
28 | 338 | > 10200 | Cc1sc2cncn2c1C(O)[C@H]1C[C@@H]1c1ccccc1 (single isomer, unassigned) [Example 167, rac-(S*)-(2-Methyl-imidazo[5,1-b]thiazol-3-yl)-((1S*,2S*)-2-phenyl-cyclopropyl)-methanol]
